Laboratory results published in patent US20160052936A1, “SPIROINDOLINE DERIVATIVES FOR USE AS GONADOTROPIN-RELEASING HORMONE RECEPTOR ANTAGONISTS” (BAYER PHARMA AKTIENGESELLSCHAFT, priority 2013, published 2016).

Experiments:
human GnRH receptor = target: T1, human GnRH receptor (Homo sapiens, UniProt P30968); experiment: IP-One HTRF assay with buserelin stimulation; format: cell-based; conditions: CHO cells stably expressing human GnRH receptor; buserelin at EC80; read-out: Potency in IP-One HTRF assay with buserelin (at EC80) stimulation, given as IC50
T1 construct: host or cells: CHO cells stably expressing human GnRH receptor (line established by Prof. Thomas Gudermann)
T1 sequence (P30968 1-328): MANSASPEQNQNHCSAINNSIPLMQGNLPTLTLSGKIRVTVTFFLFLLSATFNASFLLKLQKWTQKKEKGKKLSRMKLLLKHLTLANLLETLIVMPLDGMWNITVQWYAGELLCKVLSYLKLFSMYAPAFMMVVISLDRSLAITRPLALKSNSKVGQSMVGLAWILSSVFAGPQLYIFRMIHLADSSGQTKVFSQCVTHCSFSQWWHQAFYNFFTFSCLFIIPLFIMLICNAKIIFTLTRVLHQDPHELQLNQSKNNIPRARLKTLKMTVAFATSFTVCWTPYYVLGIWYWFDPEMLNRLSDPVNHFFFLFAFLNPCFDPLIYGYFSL
Excerpt: By using homogenous time-resolved fluorescence resonance energy transfer (HTRF), the generation of one component of the GnRH-R signalling cascade can be measured. After stimulation of CHO cells stably expressing human GnRH receptor (established by Prof. Thomas Gudermann, currently University of Marburg, Germany; supplied as frozen cell aliquots by Cell Culture Services, Hamburg, Germany) with the EC80 of the GnRH agonist buserelin, Gq protein-coupled receptor signalling cascade is activated resulting in PLC-dependent cleavage of PIP2 to Inositol-1,4,5-triphosphate (IP3) and Diacylglycerol. The second messenger IP3 is degraded intracellularly to myo-inositol. Inhibition of the final degradation step from Inositol-1-phosphate (IP1) to myo-inositol by addition of lithium chloride leads to accumulation of IP1 in the cells. In cell lysates, IP1 can be detected via an antibody-based HTRF detection technology, where IP1 can displace the FRET acceptor IP1-d2 from binding by Terbium-labelled anti-IP1 antibody as donor resulting in a signal decrease. Compounds were tested for their capability of inhibiting GnRH-R activation by buserelin. For all IP-One HTRF® assays reagents of Cisbio Bioassays (IP-One Tb Jumbo kit, #62IPAPEJ; Cisbio Bioassays, Bagnols sur Cèze Cedex, France) were used.
For the assay, frozen cell aliquots were thawed and a cell suspension (3.33×10^6 cells/mL) containing IP1-d2 (dilution 1:40) was prepared and incubated at 37° C. After 1 h 3 μl of the cell suspension were added to 50 nl of a 100-fold concentrated solution of the test compound in DMSO pre-dispensed in a well of a white low-volume 384-well microtiter plate (Greiner Bio-One, Frickenhausen, Germany). […] Plates were incubated for 1 h at 37° C. and 5% carbon dioxide before the cells were lysed by adding 3 μl Terbium-labelled anti-IP1 antibody (1:40) diluted in Conjugate & Lysis buffer as supplied with the kit. After an incubation for 1 h at 22° C. to enable complete cell lysis and antibody binding to free IP1 or IP1-d2, plates were measured in an HTRF reader, e.g. a RUBYstar, PHERAstar (both BMG Labtechnologies, Offenburg, Germany) or a Viewlux (PerkinElmer LAS, Rodgau-Jügesheim, Germany).
From the fluorescence emissions at 665 nm (FRET) and at 620 nm (background signal of Terbium-antibody), the ratio (emission at 665 nm divided by emission at 620 nm) was calculated and the data were normalized (reaction without test compound=0% inhibition; all other assay components except agonist=100% inhibition). On the same microtiter plate, compounds were tested at 10 different concentrations in the range of 20 μM to 1 nM (20 μM, 6.7 μM, 2.2 μM, 0.74 μM, 0.25 μM, 82 nM, 27 nM, 9.2 nM, 3.1 nM and 1 nM; dilution series prepared before the assay at the level of the 100-fold conc. stock solutions by serial 1:3 dilutions in 100% DMSO) in duplicate values for each concentration. By using an in-house software, the IC50 values were calculated by a 4 parameter fit.
Within the meaning of the present invention the antagonist activity is reflected by the ability of a compound of the invention to antagonize human GnRH receptor stimulation in IP-One HTRF® assay at least three times the standard deviation over the background level.

[1] = In vivo pharmacokinetics in rats; conditions: Wistar, rat, plasma, po, male rats, 2 mg/kg p.o.
Experimental: 2.4 In Vivo Pharmacokinetics in Rats
For in vivo pharmacokinetic experiments test compounds were administered to male Wistar rats intravenously at a dose of 0.5 mg/kg and intragastral at a dose of 2 mg/kg formulated as solutions using solubilizers such as PEG400 or Solutol in well-tolerated amounts.
For pharmacokinetics after intravenous administration test compounds were given as i.v. bolus and blood samples were taken at 2 min, 8 min, 15 min, 30 min, 45 min, 1 h, 2 h, 4 h, 7 h and 24 h after dosing. […] For pharmacokinetics after intragastral administration test compounds were given intragastral to fasted rats and blood samples were taken at 8 min, 15 min, 30 min, 45 min, 1 h, 2 h, 4 h, 7 h and 24 h after dosing. […] Blood was collected into Lithium-Heparintubes (Monovetten®, Sarstedt) and centrifuged for 15 min at 3000 rpm. An aliquot of 100 μL from the supernatant (plasma) was taken and precipitated by addition of 400 μL cold acetonitril and frozen at −20° C. over night. Samples were subsequently thawed and centrifuged at 3000 rpm, 4° C. for 20 minutes. Aliquots of the supernatants were taken for analytical testing using an Agilent 1200 HPLC-system with LCMS/MS detection. PK parameters were calculated by non-compartmental analysis using a PK calculation software.
PK parameters derived from concentration-time profiles after i.v.: CLplasma: Total plasma clearance of test compound (in L/kg/h); CLblood: Total blood clearance of test compound: CLplasma*Cp/Cb (in L/kg/h) with Cp/Cb being the ratio of concentrations in plasma and blood. PK parameters calculated from concentration time profiles after i.g.: Cmax: Maximal plasma concentration (in mg/L); Cmaxnorm: Cmax divided by the administered dose (in kg/L); Tmax: Time point at which Cmax was observed (in h). Parameters calculated from both, i.v. and i.g. concentration-time profiles: AUCnorm: Area under the concentration-time curve from t=0 h to infinity (extrapolated) divided by the administered dose (in kg*h/L); AUC(0−tlast)norm: Area under the concentration-time curve from t=0 h to the last time point for which plasma concentrations could be measured divided by the administered dose (in kg*h/L); t½: terminal half-life (in h); F: oral bioavailability: AUCnorm after intragastral administration divided by AUCnorm after intravenous administration (in %).

SMILES	IC50 (human GnRH receptor) [nM]	half-life [1] [h]	bioavailability ([1]; AUCnorm intragastral / AUCnorm i.v. (0.5 mg/kg), read-out: F (oral bioavailability)) [%]
N#Cc1ccc(S(=O)(=O)N2c3ccc(C(=O)NCc4ncc(C(F)(F)F)cc4Cl)cc3C3(CCS(=O)(=O)CC3)[C@@H]2C2CC2)cc1 (single isomer, unassigned) [Example 8.1]	10	5	17
O=C(NCc1ncc(C(F)(F)F)cc1F)c1ccc2c(c1)C1(CCS(=O)(=O)CC1)C(C1CC1)N2S(=O)(=O)c1ccc(F)cc1 (racemic) [Example 1, 2-cyclopropyl-1-[(4-fluorophenyl)sulfonyl]-N-{[3-fluoro-5-(trifluoromethyl)pyridin-2-yl]methyl}-1,2,2′,3′,5′,6′-hexahydrospiro[indole-3,4′-thiopyran]-5-carboxamide 1′,1′-dioxide]	420		
NC(=O)c1ccc(S(=O)(=O)N2c3ccc(C(=O)NCc4ncc(C(F)(F)F)cc4Cl)cc3C3(CCS(=O)(=O)CC3)C2C2CC2)cc1 (racemic) [Example 17, 1-[(4-carbamoylphenyl)sulfonyl]-N-{[3-chloro-5-(trifluoromethyl)pyridin-2-yl]methyl}-2-cyclopropyl-1,2,2′,3′,5′,6′-hexahydrospiro[indole-3,4′-thiopyran]-5-carboxamide 1′,1′-dioxide]	260		
N#Cc1cccc(S(=O)(=O)N2c3ccc(C(=O)NCc4ncc(C(F)(F)F)cc4Cl)cc3C3(CCS(=O)(=O)CC3)[C@H]2C2CC2)c1 (single isomer, unassigned) [Example 10.2]	1970		
N#Cc1ccc(S(=O)(=O)N2c3ccc(C(=O)NCc4ncc(C(F)(F)F)cc4Cl)cc3C3(CCS(=O)(=O)CC3)[C@H]2C2CC2)cc1 (single isomer, unassigned) [Example 8.2]	3560		
O=C(NCc1ncc(Cl)cc1C(F)(F)F)c1ccc2c(c1)C1(CCS(=O)(=O)CC1)C(C1CC1)N2S(=O)(=O)c1ccc(F)cc1 (racemic) [Example 4, N-{[5-chloro-3-(trifluoromethyl)pyridin-2-yl]methyl}-2-cyclopropyl-1-[(4-fluorophenyl)sulfonyl]-1,2,2′,3′,5′,6′-hexahydrospiro[indole-3,4′-thiopyran]-5-carboxamide 1′,1′-dioxide]	69		
O=C(NCc1ncc(C(F)(F)F)cc1Cl)c1ccc2c(c1)C1(CCS(=O)(=O)CC1)C(C1CC1)N2S(=O)(=O)c1ccc(OC(F)F)cc1 (single isomer, unassigned) [Example 16.2]	879		
